How the values were obtained:
GLP-1 receptor = GLP-1 receptor (Homo sapiens, UniProt P43220); conditions: cAMP Hunter CHO-K1 GLP1R
Description: Cells cAMP concentrations were quantified by HTRF assay (Cisbio 62AM4PEB) and EC50 parameter was analyzed by PRISM software. The cAMP Hunter™ CHO-K1 GLP1R secretes cAMP upon binding of the ligand to the receptor. […] Ligands were diluted in diluent contains IBMX and were added in duplicate to the culture wells for 30 min at 37° C. with 5% CO2. […] The dose dependent curves were established and the binding affinities (EC50) of various ligands were calculated using PRISM software by applying the best fit dose response model (Four parameters).

[1] = Obese (ob/ob) mouse model, Study 2 (MOD-6031 chronic pharmacology); format: in vivo, male ob/ob mice; conditions: OXM 6000 nmoles/kg bid sc for 32 days
Description: Body weight, food and water intake were recorded daily. […] Body weight, food and water intake were measured daily.
Oral glucose tolerant test (OGTT) studies were performed on days 2 and day 30 (FIGS. 10 and 11, respectively).

Sequence of GLP-1 receptor (P43220 24-463): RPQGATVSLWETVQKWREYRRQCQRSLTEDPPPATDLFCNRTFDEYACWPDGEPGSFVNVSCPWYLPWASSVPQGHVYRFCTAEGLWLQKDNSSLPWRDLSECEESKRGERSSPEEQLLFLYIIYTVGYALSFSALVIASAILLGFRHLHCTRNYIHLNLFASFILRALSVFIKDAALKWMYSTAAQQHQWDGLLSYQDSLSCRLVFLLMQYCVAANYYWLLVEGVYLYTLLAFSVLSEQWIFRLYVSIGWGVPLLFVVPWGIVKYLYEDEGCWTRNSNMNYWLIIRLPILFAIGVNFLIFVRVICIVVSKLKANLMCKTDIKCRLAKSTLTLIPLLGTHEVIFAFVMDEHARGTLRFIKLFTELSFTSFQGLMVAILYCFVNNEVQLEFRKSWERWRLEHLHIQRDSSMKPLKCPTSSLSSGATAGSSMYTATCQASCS

## Oxyntomodulin [OXM]
GLP-1 receptor
  higher GLP-1 receptor binding activation compared to the heterogeneous PEG30-FMS-OXM: 5.9 fold
[1]
  body weight reduction over the study: 10.3%
